Measurements as given in the supplement of paper PMC11061612.

What was measured:
Assay in all cases: combination Emax (second highest fraction inhibited in the dose matrix, 72 h); higher = more inhibition; extreme values may be limits of the assay
[1] = tested on: KOPN-8 (B-Lymphoblastic Leukemia)
Summary of the method: (§1)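 After 24 hours at 37°C and 5% CO2 in 1536-well plates, cells in DMEM/F12 or RPMI plus 10% FBS received two-drug dose matrices for 72 hours. Viability came from CellTiter-Glo 2.0 luminescence and was scaled as inhibition, anchored at 0 by vehicle wells and at 1 by blank wells. Combination Emax is taken as the second-highest inhibition in the matrix, and Bliss excess as the observed combination effect less EA + EB − EA·EB, with EA and EB the single-agent effects.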

[2] = tested on: HCC2998 (Colorectal Carcinoma)
Summary of the method: as §1

[3] = tested on: ALL-SIL (T-Lymphoblastic Leukemia)
Summary of the method: as §1

EW-1 (Ewing's Sarcoma) = tested on: EW-1 (Ewing's Sarcoma)
Summary of the method: as §1

[4] = tested on: KMRC-1 (Kidney Carcinoma)
Summary of the method: as §1

[5] = tested on: NCI-H1993 (Lung Adenocarcinoma)
Summary of the method: as §1

[6] = tested on: MDA-MB-453 (Breast Carcinoma)
Summary of the method: as §1

[7] = tested on: A4-Fuk (B-Lymphoblastic Leukemia)
Summary of the method: as §1

[8] = tested on: ML-2 (Acute Myeloid Leukemia)
Summary of the method: as §1

Hey (Ovarian Carcinoma) = tested on: Hey (Ovarian Carcinoma)
Summary of the method: as §1

[9] = tested on: KGN (Other Solid Carcinomas)
Summary of the method: as §1

[10] = tested on: MOLT-4 (T-Lymphoblastic Leukemia)
Summary of the method: as §1

COLO-679 (Melanoma) = tested on: COLO-679 (Melanoma)
Summary of the method: as §1

[11] = tested on: Mo-T (Other Blood Carcinomas)
Summary of the method: as §1

[12] = tested on: NCI-H650 (Lung Adenocarcinoma)
Summary of the method: as §1

[13] = tested on: MV-4-11 (Acute Myeloid Leukemia)
Summary of the method: as §1

[14] = tested on: CADO-ES1 (Ewing's Sarcoma)
Summary of the method: as §1

[15] = tested on: ME-180 (Cervical Carcinoma)
Summary of the method: as §1

[16] = tested on: HAL-01 (B-Lymphoblastic Leukemia)
Summary of the method: as §1

[17] = tested on: OACM5-1 (Esophageal Adenocarcinoma)
Summary of the method: as §1

CN(C)CCCOc1ccc(-c2ccc3ncc4c(c3c2)n(C2CCOCC2)c(=O)n4C)cn1 [AZD0156] + C=CCn1c(=O)c2cnc(Nc3ccc(N4CCN(C)CC4)cc3)nc2n1-c1cccc(C(C)(C)O)n1 [AZD1775] (first compound max 1 µM, partner max 1 µM)
combination Emax [1]: 0.85
combination Emax [2]: 0.633
combination Emax [3]: 0.742
combination Emax (EW-1 (Ewing's Sarcoma)): 0.886
combination Emax [4]: 0.259
combination Emax [5]: 0.586
combination Emax [6]: 0.192
combination Emax [7]: 0.816
combination Emax [8]: 1
combination Emax (Hey (Ovarian Carcinoma)): 0.495
combination Emax [9]: 0.806
combination Emax [10]: 1
combination Emax (COLO-679 (Melanoma)): 0.552
combination Emax [11]: 0.402
combination Emax [12]: 0.263
combination Emax [13]: 0.924
combination Emax [14]: 0.39
combination Emax [15]: 0.423
combination Emax [16]: 0.917
combination Emax [17]: 0.414

Cc1c2c(nn1C)CSCc1cc(n(C)n1)CSc1cc(c3ccccc3c1)OCCCc1c(C(=O)O)n(C)c3c-2c(Cl)ccc13 [AZD5991] + CCN(CCO)CCCOc1ccc2c(Nc3cc(CC(=O)Nc4cccc(F)c4)[nH]n3)ncnc2c1 [AZD2811] (first compound max 1 µM, 7x7, partner max 1 µM)
combination Emax [1]: 0.983
combination Emax [2]: 0.94
combination Emax [3]: 1
combination Emax (EW-1 (Ewing's Sarcoma)): 0.482
combination Emax [4]: 0.194
combination Emax [5]: 0.232
combination Emax [6]: 0.75
combination Emax [7]: 1
combination Emax [8]: 1
combination Emax (Hey (Ovarian Carcinoma)): 0.331
combination Emax [9]: 0.574
combination Emax [10]: 0.941
combination Emax (COLO-679 (Melanoma)): 0.42
combination Emax [11]: 0.189
combination Emax [12]: 0.61
combination Emax [13]: 1
combination Emax [14]: 0.908
combination Emax [15]: 0.343
combination Emax [16]: 0.468
combination Emax [17]: 0.946

COc1cccc2c1C(=O)c1c(O)c3c(c(O)c1C2=O)C[C@@](O)(C(=O)CO)C[C@@H]3O[C@H]1C[C@H](N)[C@H](O)[C@H](C)O1 [Doxorubicin] + Cc1cc2ncnn2cc1Nc1ncc2c(n1)n(C1CCOCC1)c(=O)n2C [AZD7648] (first compound max 1 µM, 7x7, partner max 10 µM)
combination Emax [1]: 0.916
combination Emax [2]: 0.943
combination Emax [3]: 0.983
combination Emax (EW-1 (Ewing's Sarcoma)): 0.952
combination Emax [4]: 0.518
combination Emax [5]: 0.968
combination Emax [6]: 0.639
combination Emax [7]: 0.877
combination Emax [8]: 0.913
combination Emax (Hey (Ovarian Carcinoma)): 0.906
combination Emax [9]: 0.901
combination Emax [10]: 1
combination Emax (COLO-679 (Melanoma)): 0.959
combination Emax [11]: 0.871
combination Emax [12]: 0.334
combination Emax [13]: 1
combination Emax [14]: 0.873
combination Emax [15]: 0.958
combination Emax [16]: 0.986
combination Emax [17]: 0.834

NC1(C(=O)N[C@@H](CCO)c2ccc(Cl)cc2)CCN(c2ncnc3[nH]ccc23)CC1 [Capivasertib] + Cn1cnc2c(F)c(Nc3ccc(Br)cc3Cl)c(C(=O)NOCCO)cc21 [Selumetinib] (first compound max 10 µM, 7x7, partner max 10 µM)
combination Emax [1]: 0.722
combination Emax [2]: 0.774
combination Emax [3]: 0.513
combination Emax (EW-1 (Ewing's Sarcoma)): 0.437
combination Emax [4]: 0.504
combination Emax [5]: 0.839
combination Emax [6]: 0.572
combination Emax [7]: 0.905
combination Emax [8]: 0.985
combination Emax (Hey (Ovarian Carcinoma)): 0.773
combination Emax [9]: 0.54
combination Emax [10]: 0.758
combination Emax (COLO-679 (Melanoma)): 0.786
combination Emax [11]: 0.41
combination Emax [12]: 0.352
combination Emax [13]: 0.881
combination Emax [14]: 0.279
combination Emax [15]: 0.681
combination Emax [16]: 0.554
combination Emax [17]: 0.7
